Experimental data taken from PubChem BioAssay AID2060898 (Molecular Pharmacology Branch, DTP, NCI, 2025).
pIC50: −log10 of the molar value. Each block holds one compound with its values, some of them ahead of it.

Tested on: 616215-338-R-J1-PDC complex spheroid viability
Test: Anticancer human tumor 616215-338-R-J1-PDC patient-derived colon adenocarcinoma cell line growth inhibition [RAS]
Conditions: for pIC50: curve of first compound; for viability, T/C: stronger effect = lower value
Summary of the method: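 Agents were tested in combination matrices in half-log decrements from a top concentration at or near clinical Cmax (10 microM if undetermined). Targets were multi-cell spheroids of tumour lines plus HUVEC and MSC stromal cells.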

[1] = second compound 0.000949 µM, first compound 0.0316 µM
[2] = second compound 0.000949 µM, first compound 0.1 µM
[3] = second compound 0.000949 µM, first compound 0.316 µM
[4] = second compound 0.000949 µM, first compound 1 µM
[5] = second compound 0.000949 µM, first compound 3.16 µM
[6] = second compound 0.000949 µM, first compound 10 µM
[7] = second compound 0.003 µM, first compound 0.0316 µM
[8] = second compound 0.003 µM, first compound 0.1 µM
[9] = second compound 0.003 µM, first compound 0.316 µM
[10] = second compound 0.003 µM, first compound 1 µM
[11] = second compound 0.003 µM, first compound 3.16 µM
[12] = second compound 0.003 µM, first compound 10 µM
[13] = second compound 0.00949 µM, first compound 0.0316 µM
[14] = second compound 0.00949 µM, first compound 0.1 µM
[15] = second compound 0.00949 µM, first compound 0.316 µM
[16] = second compound 0.00949 µM, first compound 1 µM
[17] = second compound 0.00949 µM, first compound 3.16 µM
[18] = second compound 0.00949 µM, first compound 10 µM
[19] = second compound 0.03 µM, first compound 0.0316 µM
[20] = second compound 0.03 µM, first compound 0.1 µM
[21] = second compound 0.03 µM, first compound 0.316 µM
[22] = second compound 0.03 µM, first compound 1 µM
[23] = second compound 0.03 µM, first compound 3.16 µM
[24] = second compound 0.03 µM, first compound 10 µM
[25] = second compound 0.0949 µM, first compound 0.0316 µM
[26] = second compound 0.0949 µM, first compound 0.1 µM
[27] = second compound 0.0949 µM, first compound 0.316 µM
[28] = second compound 0.0949 µM, first compound 1 µM
[29] = second compound 0.0949 µM, first compound 3.16 µM
[30] = second compound 0.0949 µM, first compound 10 µM
[31] = second compound 0.3 µM, first compound 0.0316 µM
[32] = second compound 0.3 µM, first compound 0.1 µM
[33] = second compound 0.3 µM, first compound 0.316 µM
[34] = second compound 0.3 µM, first compound 1 µM
[35] = second compound 0.3 µM, first compound 3.16 µM
[36] = second compound 0.3 µM, first compound 10 µM
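Also: spheroids exposed to agents for seven days before viability readout.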
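For viability, T/C in this document: 100% = DMSO vehicle control viability.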

Structure (SMILES): CC1(O)CCCC1n1c(=O)c(C(F)F)cc2cnc(NC3CCN(S(C)(=O)=O)CC3)nc21 (stereo not given) + CCn1c(-c2cccnc2C(C)OC)c2c3cc(ccc31)N1CCOC(CC(NC(=O)C(C(C)C)N(C)C(=O)C3(F)CCN(C(=O)C#CC(C)(C)N(C)C)CC3)C(=O)N3CCCC(N3)C(=O)OCC(C)(C)C2)C1
pIC50 (second compound 0.000949 µM): 5.93
pIC50 (second compound 0.003 µM): 5.89
pIC50 (second compound 0.00949 µM): 5.87
pIC50 (second compound 0.03 µM): 5.94
pIC50 (second compound 0.0949 µM): 5.93
pIC50 (second compound 0.3 µM): 6.08
viability, T/C [1]: 112%
viability, T/C [2]: 105%
viability, T/C [3]: 57.5%
viability, T/C [4]: 53.3%
viability, T/C [5]: 48.3%
viability, T/C [6]: 3.43%
viability, T/C [7]: 114%
viability, T/C [8]: 109%
viability, T/C [9]: 58.3%
viability, T/C [10]: 56.5%
viability, T/C [11]: 49.9%
viability, T/C [12]: 3.17%
viability, T/C [13]: 109%
viability, T/C [14]: 112%
viability, T/C [15]: 61.9%
viability, T/C [16]: 55.3%
viability, T/C [17]: 50.3%
viability, T/C [18]: 3.71%
viability, T/C [19]: 118%
viability, T/C [20]: 112%
viability, T/C [21]: 55.1%
viability, T/C [22]: 50%
viability, T/C [23]: 46%
viability, T/C [24]: 4.07%
viability, T/C [25]: 108%
viability, T/C [26]: 102%
viability, T/C [27]: 60.8%
viability, T/C [28]: 51%
viability, T/C [29]: 49.8%
viability, T/C [30]: 4.02%
viability, T/C [31]: 95.5%
viability, T/C [32]: 74.3%
viability, T/C [33]: 44.1%
viability, T/C [34]: 52.6%
viability, T/C [35]: 52.4%
viability, T/C [36]: 3.81%

Structure (SMILES): CCC(CC)c1cc(NC2CCC(N)C2)n2nccc2n1 (stereo not given) + CCn1c(-c2cccnc2C(C)OC)c2c3cc(ccc31)N1CCOC(CC(NC(=O)C(C(C)C)N(C)C(=O)C3(F)CCN(C(=O)C#CC(C)(C)N(C)C)CC3)C(=O)N3CCCC(N3)C(=O)OCC(C)(C)C2)C1
pIC50 (second compound 0.000949 µM): 5.74
pIC50 (second compound 0.003 µM): 5.75
pIC50 (second compound 0.00949 µM): 5.75
pIC50 (second compound 0.03 µM): 5.75
pIC50 (second compound 0.0949 µM): 5.74
pIC50 (second compound 0.3 µM): 5.80
viability, T/C [1]: 107%
viability, T/C [2]: 89.4%
viability, T/C [3]: 109%
viability, T/C [4]: 107%
viability, T/C [5]: 0.55%
viability, T/C [6]: 0.29%
viability, T/C [7]: 101%
viability, T/C [8]: 94.6%
viability, T/C [9]: 89.1%
viability, T/C [10]: 106%
viability, T/C [11]: 0.5%
viability, T/C [12]: 0.26%
viability, T/C [13]: 92.2%
viability, T/C [14]: 92.8%
viability, T/C [15]: 101%
viability, T/C [16]: 111%
viability, T/C [17]: 0.46%
viability, T/C [18]: 0.26%
viability, T/C [19]: 101%
viability, T/C [20]: 93.3%
viability, T/C [21]: 91.2%
viability, T/C [22]: 109%
viability, T/C [23]: 0.45%
viability, T/C [24]: 0.22%
viability, T/C [25]: 103%
viability, T/C [26]: 110%
viability, T/C [27]: 106%
viability, T/C [28]: 102%
viability, T/C [29]: 0.44%
viability, T/C [30]: 0.27%
viability, T/C [31]: 114%
viability, T/C [32]: 112%
viability, T/C [33]: 116%
viability, T/C [34]: 82.1%
viability, T/C [35]: 0.46%
viability, T/C [36]: 0.29%

Second part, led by results:

pIC50 (second compound 0.000949 µM): < 6.00
pIC50 (second compound 0.003 µM): < 6.00
pIC50 (second compound 0.00949 µM): < 6.00
pIC50 (second compound 0.03 µM): < 6.00
pIC50 (second compound 0.0949 µM): < 6.00
pIC50 (second compound 0.3 µM): 6.03
Structure (SMILES): CCN1CCN(Cc2ccc(Nc3ncc(F)c(-c4cc(F)c5nc(C)n(C(C)C)c5c4)n3)nc2)CC1 + CCn1c(-c2cccnc2C(C)OC)c2c3cc(ccc31)N1CCOC(CC(NC(=O)C(C(C)C)N(C)C(=O)C3(F)CCN(C(=O)C#CC(C)(C)N(C)C)CC3)C(=O)N3CCCC(N3)C(=O)OCC(C)(C)C2)C1
viability, T/C (second compound 0.000949 µM, first compound 0.00316 µM): 104%
viability, T/C (second compound 0.000949 µM, first compound 0.01 µM): 103%
viability, T/C [1]: 104%
viability, T/C [2]: 122%
viability, T/C [3]: 144%
viability, T/C [4]: 66.5%
viability, T/C (second compound 0.003 µM, first compound 0.00316 µM): 102%
viability, T/C (second compound 0.003 µM, first compound 0.01 µM): 103%
viability, T/C [7]: 105%
viability, T/C [8]: 121%
viability, T/C [9]: 141%
viability, T/C [10]: 59.2%
viability, T/C (second compound 0.00949 µM, first compound 0.00316 µM): 102%
viability, T/C (second compound 0.00949 µM, first compound 0.01 µM): 104%
viability, T/C [13]: 108%
viability, T/C [14]: 128%
viability, T/C [15]: 134%
viability, T/C [16]: 56.8%
viability, T/C (second compound 0.03 µM, first compound 0.00316 µM): 110%
viability, T/C (second compound 0.03 µM, first compound 0.01 µM): 105%
viability, T/C [19]: 118%
viability, T/C [20]: 122%
viability, T/C [21]: 143%
viability, T/C [22]: 67.1%
viability, T/C (second compound 0.0949 µM, first compound 0.00316 µM): 109%
viability, T/C (second compound 0.0949 µM, first compound 0.01 µM): 113%
viability, T/C [25]: 116%
viability, T/C [26]: 121%
viability, T/C [27]: 129%
viability, T/C [28]: 50%
viability, T/C (second compound 0.3 µM, first compound 0.00316 µM): 117%
viability, T/C (second compound 0.3 µM, first compound 0.01 µM): 104%
viability, T/C [31]: 113%
viability, T/C [32]: 116%
viability, T/C [33]: 108%
viability, T/C [34]: 46%

pIC50 (second compound 0.000949 µM): < 5.00
pIC50 (second compound 0.003 µM): < 5.00
pIC50 (second compound 0.00949 µM): < 5.00
pIC50 (second compound 0.03 µM): < 5.00
pIC50 (second compound 0.0949 µM): < 5.00
pIC50 (second compound 0.3 µM): 5.21
Structure (SMILES): C[C@@H](NC(=O)c1ncnc(N)c1Cl)c1ncc(C(=O)Nc2cc(C(F)(F)F)c(Cl)cn2)s1 + CCn1c(-c2cccnc2C(C)OC)c2c3cc(ccc31)N1CCOC(CC(NC(=O)C(C(C)C)N(C)C(=O)C3(F)CCN(C(=O)C#CC(C)(C)N(C)C)CC3)C(=O)N3CCCC(N3)C(=O)OCC(C)(C)C2)C1
viability, T/C [1]: 108%
viability, T/C [2]: 103%
viability, T/C [3]: 100%
viability, T/C [4]: 117%
viability, T/C [5]: 113%
viability, T/C [6]: 61.5%
viability, T/C [7]: 94.2%
viability, T/C [8]: 105%
viability, T/C [9]: 104%
viability, T/C [10]: 120%
viability, T/C [11]: 107%
viability, T/C [12]: 68%
viability, T/C [13]: 103%
viability, T/C [14]: 100%
viability, T/C [15]: 101%
viability, T/C [16]: 112%
viability, T/C [17]: 121%
viability, T/C [18]: 72.7%
viability, T/C [19]: 101%
viability, T/C [20]: 98.6%
viability, T/C [21]: 116%
viability, T/C [22]: 111%
viability, T/C [23]: 112%
viability, T/C [24]: 68.6%
viability, T/C [25]: 109%
viability, T/C [26]: 115%
viability, T/C [27]: 116%
viability, T/C [28]: 86.1%
viability, T/C [29]: 90%
viability, T/C [30]: 54.6%
viability, T/C [31]: 113%
viability, T/C [32]: 111%
viability, T/C [33]: 100%
viability, T/C [34]: 79.8%
viability, T/C [35]: 66.5%
viability, T/C [36]: 39.7%

pIC50 (second compound 0.000949 µM): < 5.00
pIC50 (second compound 0.003 µM): < 5.00
pIC50 (second compound 0.00949 µM): < 5.00
pIC50 (second compound 0.03 µM): < 5.00
pIC50 (second compound 0.0949 µM): < 5.00
pIC50 (second compound 0.3 µM): 5.12
Structure (SMILES): Cc1nc(N2CCC3(CC2)COC(C)C3N)c(CO)nc1Sc1ccnc(N)c1Cl (stereo not given) + CCn1c(-c2cccnc2C(C)OC)c2c3cc(ccc31)N1CCOC(CC(NC(=O)C(C(C)C)N(C)C(=O)C3(F)CCN(C(=O)C#CC(C)(C)N(C)C)CC3)C(=O)N3CCCC(N3)C(=O)OCC(C)(C)C2)C1
viability, T/C [1]: 112%
viability, T/C [2]: 106%
viability, T/C [3]: 117%
viability, T/C [4]: 96.8%
viability, T/C [5]: 80.1%
viability, T/C [6]: 72.3%
viability, T/C [7]: 110%
viability, T/C [8]: 112%
viability, T/C [9]: 103%
viability, T/C [10]: 92.6%
viability, T/C [11]: 79.6%
viability, T/C [12]: 69.6%
viability, T/C [13]: 113%
viability, T/C [14]: 108%
viability, T/C [15]: 111%
viability, T/C [16]: 93.3%
viability, T/C [17]: 92.6%
viability, T/C [18]: 62.8%
viability, T/C [19]: 116%
viability, T/C [20]: 114%
viability, T/C [21]: 101%
viability, T/C [22]: 97.8%
viability, T/C [23]: 86.1%
viability, T/C [24]: 59.1%
viability, T/C [25]: 117%
viability, T/C [26]: 120%
viability, T/C [27]: 96.8%
viability, T/C [28]: 74.2%
viability, T/C [29]: 62.5%
viability, T/C [30]: 53.8%
viability, T/C [31]: 102%
viability, T/C [32]: 84%
viability, T/C [33]: 77%
viability, T/C [34]: 68.3%
viability, T/C [35]: 52.6%
viability, T/C [36]: 49.2%
